Results published in patent US7199129B2, “Derivatives of morphine-like opioid compounds” (Monash University, priority 2001, dated 2007).
Values joined by “and” are separate entries in the source; they are usually repeats but may differ in a detail not shown here. Identical values can stand only once. “Also recorded” adds a separate entry of the source.

Legend:
[1] = molecular target: T1, human κ-opiate receptor (Homo sapiens, UniProt P41145); assay: In vitro opiate receptor radioligand binding assay, κ; conditions: test compound 10 μM
T1 construct: purchased MDS Pharma Services 260210
T1 sequence (P41145 whole entry): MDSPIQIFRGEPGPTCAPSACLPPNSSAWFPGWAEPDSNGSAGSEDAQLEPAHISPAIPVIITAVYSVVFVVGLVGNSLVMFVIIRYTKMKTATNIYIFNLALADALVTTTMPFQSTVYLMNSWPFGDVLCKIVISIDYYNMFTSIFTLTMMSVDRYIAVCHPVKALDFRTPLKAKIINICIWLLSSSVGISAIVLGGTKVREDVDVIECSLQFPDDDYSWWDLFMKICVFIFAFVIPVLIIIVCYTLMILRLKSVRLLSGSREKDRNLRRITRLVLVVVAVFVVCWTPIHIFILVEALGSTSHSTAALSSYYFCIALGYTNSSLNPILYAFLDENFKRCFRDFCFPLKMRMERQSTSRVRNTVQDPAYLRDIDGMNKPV
Protocol: To characterise the target specificity of the compounds, KRS-5-150 and KRS-6-26 were tested at a concentration of 10 μM for their ability to inhibit the binding of a radioligand to human δ-, κ-, or μ-opiate receptors in vitro using commercially available assays (MDS Pharma Services; assay catalogue numbers 260110, 260210 and 260410 respectively).
Percentage inhibition of radioligand binding to human opioid receptors in vitro by test compounds (10 μM)

[2] = system: ICR-derived mice; assay: Phenylquinone-induced writhing assay in mice, IP and oral (Example 17); format: in vivo; conditions: for % Inhibition / Number of Writhings Average / Number of Writhings Individual: Table 2; for Number of Writhings Individual: individual mice; for Died (mortality, animals of group of 3): within 30 minutes after administration
Protocol: Further testing on compound KRS-5–150 was carried out under contract by MDS Pharma Services—Taiwan Ltd. The study was designed to evaluate the effects of the compound as an analgesic in the phenylquinone-induced writhing assay, which was described in the previous example, and in the radiant heat-induced tail-flick response assay in mice (D'Amour et al., 1941).
For the phenylquinone writhing test, groups of three male or female ICR-derived mice weighing 22±2 g were used. For the phenylquinone writhing test, KRS-5-150 at doses of 1, 2, 4, 8, 16, 32, 64 and 128 mg/kg in either 2% Tween 80/0.9% NaCl or in 2% Tween 80 was used for intraperitoneal administration, or at doses of 1, 2, 4, 8, 16, 32 or 64 mg/kg in the same vehicles for oral administration. Control animals received vehicle alone. […] A reduction in the number of writhes by 50% or more (≧50%) relative to the vehicle-treated group indicated possible analgesic activity.

Oc1ccc2c3c1O[C@H]1[C@@H](O)C=C[C@H]4[C@@H](C2)N(CCCNC(=Nc2ccccc2)Nc2ccccc2)CC[C@@]341 [KRS-5-150, (5α,6α)-7,8 didehydro-4,5-epoxy-17-(N,N′-bisphenylcarboxamidino-3-aminopropyl)morphinan,3,6-diol]
Percentage inhibition of radioligand binding, κ-opiate receptor [1]: 79% | % Inhibition ([2]; IP, 1 mg/kg): 13% | Number of Writhings Average ([2]; IP, 1 mg/kg): 14 | Number of Writhings Individual ([2]; IP, 1 mg/kg): 16 and 13 and 14 | % Inhibition ([2]; IP, 2 mg/kg): 31% | Number of Writhings Average ([2]; IP, 2 mg/kg): 11 | Number of Writhings Individual ([2]; IP, 2 mg/kg): 13 and 11 and 8 | % Inhibition ([2]; IP, 4 mg/kg): (56) % | Number of Writhings Average ([2]; IP, 4 mg/kg): 7 | Number of Writhings Individual ([2]; IP, 4 mg/kg): 2 and 11 and 8 | % Inhibition ([2]; IP, 8 mg/kg): (88) % | Number of Writhings Average ([2]; IP, 8 mg/kg): 2 | Number of Writhings Individual ([2]; IP, 8 mg/kg): 0 and 4 and 2 | % Inhibition ([2]; IP, 16 mg/kg): (69) % | Number of Writhings Average ([2]; IP, 16 mg/kg): 5 | Number of Writhings Individual ([2]; IP, 16 mg/kg): 4 and 2 and 9 | % Inhibition ([2]; IP, 32 mg/kg): (100) % | Number of Writhings Average ([2]; IP, 32 mg/kg): 0 | Number of Writhings Individual ([2]; IP, 32 mg/kg): 0 | Number of Writhings Individual ([2]; IP, 64 mg/kg): Died and 0 (2×) | Died (mortality, animals of group of 3) ([2]; IP, 64 mg/kg, 64 mg/kg): 1 of 3 and ⅓ and 1/3 Died | Number of Writhings Individual ([2]; IP, 128 mg/kg): 0 and Died (2×) | Died (mortality, animals of group of 3) ([2]; IP, 128 mg/kg, 128 mg/kg): 2 of 3 and ⅔ and 2/3 Died | analgesic activity in writhing test ([2]; given IP): active | analgesic activity (≧50% reduction in writhes) ([2]; intraperitoneal, doses of 4, 8, 16 and 32 mg/kg): Significant activity | analgesic activity (≧50% reduction in writhes) ([2]; oral administration, 1 to 64 mg/kg): not when given orally; also recorded: not after oral administration | % Inhibition ([2]; oral, 1 mg/kg): 0% | Number of Writhings Average ([2]; oral, 1 mg/kg): 16 | Number of Writhings Individual ([2]; oral, 1 mg/kg): 25 and 8 and 14 | % Inhibition ([2]; oral, 2 mg/kg): 0% | Number of Writhings Average ([2]; oral, 2 mg/kg): 14 | Number of Writhings Individual ([2]; oral, 2 mg/kg): 9 and 21 and 11 | % Inhibition ([2]; oral, 4 mg/kg): 0% | Number of Writhings Average ([2]; oral, 4 mg/kg): 14 | Number of Writhings Individual ([2]; oral, 4 mg/kg): 9 and 15 and 17 | % Inhibition ([2]; oral, 8 mg/kg): 0% | Number of Writhings Average ([2]; oral, 8 mg/kg): 15 | Number of Writhings Individual ([2]; oral, 8 mg/kg): 17 and 21 and 6 | % Inhibition ([2]; oral, 16 mg/kg): 0% | Number of Writhings Average ([2]; oral, 16 mg/kg): 14 | Number of Writhings Individual ([2]; oral, 16 mg/kg): 6 and 17 and 18 | % Inhibition ([2]; oral, 32 mg/kg): 0% | Number of Writhings Average ([2]; oral, 32 mg/kg): 15 | Number of Writhings Individual ([2]; oral, 32 mg/kg): 12 and 14 and 18 | % Inhibition ([2]; oral, 64 mg/kg): 14% | Number of Writhings Average ([2]; oral, 64 mg/kg): 12 | Number of Writhings Individual ([2]; oral, 64 mg/kg): 12 and 5 and 18
